How the values were obtained:
[1] = biological target: T1, FGFR; assay: FGFR kinase HTRF assay; assay type: biochemical; conditions: 1.5 nM activated FGFR, 10 μM ATP; read-out: Inhibition of FGFR IC50
T1 construct: fused on or other part: GST tag
Procedure: To determine inhibition of KDR and FGFR, kinase assays were conducted using an HTRF (Homogeneous Time Resolved Fluorescence) assay. This assay is described in A. J. Kolb et. al., Drug Discovery Today, 1998, 3(7), p 333.
FGFR activity assays were carried out as described above for the KDR activity assay with the following differences. GST-tagged FGFR enzyme was activated at room temperature for 1 hour in the following activation buffer: 100 mM HEPES, pH 7.4, 50 mM NaCl, 20 mM MgCl2, and 4 mM ATP. […] The rest of the assay was performed in the same manner as KDR assay.
Compound IC50 values were determined from duplicate sets of data, and calculated by using Excel and fitting data to equation Y=[(a−b)/{1+(X/c)^d]+b, where a and b are enzyme activity in the presence of no test inhibitor compound and an infinite amount of inhibitor test compound, respectively, c is the IC50 and d is the hill constant of the compound response. The IC50 value is the concentration of test compound that reduces by 50% the enzyme activity under the test conditions described.

[2] = test system: VEGF-stimulated HUVEC; assay: VEGF-stimulated HUVEC proliferation assay (BrdU); assay type: cell-based; conditions: Homo sapiens, BrdU labeling, VEGF 20 ng per mL, 24 hour exposure, read-out: Antiproliferative Activity VEGF-stimulated HUVEC Assay IC50
Procedure: (§1) The antiproliferative activity of test compounds of this invention in cell-based assays was evaluated by BrdU assay using the BrdU kit (Roche Biochemicals 1-647-229). Human umbilical vein endothelial cells (HUVEC, Clonetics CC-2519) were cultured in EGM-2 (Clonetics CC-3162) medium and seeded at 10000 cells per well in a volume of 200 μL of EGM-2 (Clonetics CC-3162) media in a 96-well flat bottom plates (Costar 3595) overnight. After 24 hours of growth at 37° C. with 5% CO2, the incubation media was removed slowly by aspiration, and the content of each well was washed with 300 μL pre-warmed EBM-2 (Clonetics CC-3156) containing 50 μg per mL of gentamycin and 50 ng per mL of amphotercin-B (Clonetics CC-4083). Subsequently, the remaining media was again aspirated and replaced with 160 μL per well of serum starvation media (EBM-2 supplemented with 1% heat inactivated FBS (Clonetics CC-4102), 50 μg per mL gentamycin and 50 ng per mL of amphotercin-B (Clonetics CC-4083), 10 units per mL of Wyeth-Ayerst heparin (NDC0641-0391-25), and 2 mM L-glutamine (GIBCO 25030-081). After serum starving the cells for 24 hours, 20 μL of test compound at 10× test concentration in serum starvation medium with 2.5% DMSO was added to the appropriate wells. The control wells contained 20 μL of serum starvation medium with 2.5% DMSO. Plates were returned to the incubator for 2 hours. After pre-incubating the cells with the test compounds for 2 hours, 20 μL of growth factors at 10X assay concentration diluted in serum starvation media, FGF at 50 ng per mL, or VEGF (R&D systems 293-VE) at 200 ng per mL were added. The final concentration of FGF in the assay was 5 ng per mL and the final concentration of VEGF in the assays was 20 ng per mL. The growth factor free control wells had 20 μL per well of serum starvation media with the same amount of BSA as the wells with growth factors. The plates were returned to the incubator for an additional 22 hours.
(§2) After 24 hour exposure to the test compounds, the cells were labeled with BrdU (Roche Biochemicals 1-647-229), by adding 20 μL per well of BrdU labeling reagent that has been diluted (1:100) in serum starvation medium. The plates were then returned to the incubator for 4 hours. The labeling medium was removed by draining the medium onto paper towels. […] The plates were read at 450 nm with reference wavelength of 650 nm. The percent inhibition for each test compound was calculated by subtracting the absorbency of the blank (no cells) wells from all wells, then subtracting the division of the average absorbency of each test duplicate by the average of the controls from 1. […] The IC50 is determined from the linear regression of a plot of the logarithm of the concentration versus percent inhibition.

[3] = test system: FGF-stimulated HUVEC; assay: FGF-stimulated HUVEC proliferation assay (BrdU); assay type: cell-based; conditions: Homo sapiens, BrdU labeling, FGF 5 ng per mL, 24 hour exposure, read-out: Antiproliferative Activity FGF-stimulated HUVEC Assay IC50
Procedure: as §1, §2

## COc1cc2c(cc1F)C(c1ccccc1Cl)=Nc1c(n[nH]c1C)N2 [IVa, 5-(2-chlorophenyl)-1,2-dihydro-7-fluoro-8-methoxy-3-methyl-pyrazolo[3,4-b][1,4]benzodiazepine]
[1]
  IC50: 28 nM
[2]
  IC50: 23 nM
[3]
  IC50: 100 nM

— patent US7524840B2, “7,8-disubstituted pyrazolobenzodiazepines” (Hoffmann-La Roche Inc., priority 2004, dated 2009)
